Laboratory results as given in patent US7579356B2, “Thia-tetraazaacenaphthylene kinase inhibitors” (Janssen Pharmaceutica NV, priority 2005, dated 2009).

Key:
Format in all cases: biochemical
HER-2 = target: T1, HER-2 (Homo sapiens, UniProt P04626); assay: HER-2 Kinase Assay; settings: for inhibition at 1 µM: test concentration of 1 μM; for IC50: value in parentheses
T1 construct: His6 with thrombin site (N); purchased Proqinase (Freiburg, Germany)
Outline: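 Read-out was scintillation counting of 33P incorporated into biotinylated polyGluTyr captured on streptavidin plates. Reactions ran 1 h at 30 °C with GST-fused HER-2 residues 679–1255, 1 μM ATP, Mn2+ and Mg2+ at pH 7.5; data given as percent inhibition at 1 μM, with IC50 where determined.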

Lyn kinase (human) = target: T2, Lyn kinase (human) (Homo sapiens, UniProt P07948); assay: Lyn Kinase Assay; settings: test concentration of 2 μM
T2 construct: purchased Upstate Biotechnology, Lake Placid, N.Y
T2 sequence (P07948 whole entry): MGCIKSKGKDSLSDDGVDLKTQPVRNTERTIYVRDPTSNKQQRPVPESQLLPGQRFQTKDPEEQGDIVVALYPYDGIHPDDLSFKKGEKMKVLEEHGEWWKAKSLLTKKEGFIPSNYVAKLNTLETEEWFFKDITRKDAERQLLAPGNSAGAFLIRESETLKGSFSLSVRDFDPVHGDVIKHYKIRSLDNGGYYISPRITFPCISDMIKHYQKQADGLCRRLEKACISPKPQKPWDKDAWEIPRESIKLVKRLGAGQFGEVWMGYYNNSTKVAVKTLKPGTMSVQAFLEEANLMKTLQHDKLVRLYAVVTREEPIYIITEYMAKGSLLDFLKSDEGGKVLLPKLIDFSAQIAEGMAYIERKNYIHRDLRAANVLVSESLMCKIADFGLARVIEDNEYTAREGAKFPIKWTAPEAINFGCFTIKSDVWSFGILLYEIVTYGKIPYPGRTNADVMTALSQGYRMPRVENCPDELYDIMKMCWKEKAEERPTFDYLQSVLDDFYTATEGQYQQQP
Procedure: A mixture of a 10× kinase buffer (500 mM MOPS at pH 7.5, 1 mM EGTA, 1 mM Sodium Vanadate, 1% β-mercaptoethanol and 100 mM Magnesium Acetate), ATP (5 μM final from a 10 mM stock), polyGluTyr (0.1 mg/mL final from a 1 mg/mL stock), γ-^33P ATP (10 μCl/μL stock) and water (for a total of 20 μL/well) was added to each well of a Streptavidin Flashplate.
Test compound in 100% DMSO (0.5 μL) was added to the appropriate wells. Diluted Lyn kinase (human)(Accession Number EMBL M16038) (Upstate Biotechnology, Lake Placid, N.Y.) (diluted in a buffer consisting of 50 mM Tris at pH 7.5, 0.1 mM EGTA, Sodium Vanadate (0.1 mM), β-mercaptoethanol (0.1%) and 1 mg/mL bovine serum albumin) (2.5 μL) was added to the wells to initiate the reactions.
The reaction plates were incubated at 30° C. for 40 min. The reaction was terminated by the addition of a 3% phosphoric acid solution (5 μL). The reaction product (10 μL) was spotted onto a P30 filtermat and washed for 5 minutes in phosphoric acid (75 mM). The wash sequence was repeated two more times, followed with one final wash in methanol. The plates were then dried, sealed and read on the TopCount scintillation counter after adding 30 μL scintillation fluid.
The Lyn inhibition values were derived according to the procedure described in Example 164 and are shown as percent in Table 3 at a test concentration of 2 μM. For those compounds with an IC50, the IC50 value in μM is shown in parentheses. For compounds with multiple test values, each value represents a separate assay result.

EGFR = target: T3, EGFR (Homo sapiens, UniProt P00533); assay: EGFR Kinase Assay; settings: for inhibition at 2 µM: test concentration of 2 μM, compounds without an IC50, read-out: EGFR inhibition in percent; for IC50: GST-EGFR, ATP 5 μM
T3 construct: The intracellular portion of EGFR started at nucleotide 2189 (corresponding to amino acid 667) and ended at the termination codon; made in house; host or cells: Sf9 insect cells (baculovirus)
T3 sequence (P00533 669-1210 limits assumed): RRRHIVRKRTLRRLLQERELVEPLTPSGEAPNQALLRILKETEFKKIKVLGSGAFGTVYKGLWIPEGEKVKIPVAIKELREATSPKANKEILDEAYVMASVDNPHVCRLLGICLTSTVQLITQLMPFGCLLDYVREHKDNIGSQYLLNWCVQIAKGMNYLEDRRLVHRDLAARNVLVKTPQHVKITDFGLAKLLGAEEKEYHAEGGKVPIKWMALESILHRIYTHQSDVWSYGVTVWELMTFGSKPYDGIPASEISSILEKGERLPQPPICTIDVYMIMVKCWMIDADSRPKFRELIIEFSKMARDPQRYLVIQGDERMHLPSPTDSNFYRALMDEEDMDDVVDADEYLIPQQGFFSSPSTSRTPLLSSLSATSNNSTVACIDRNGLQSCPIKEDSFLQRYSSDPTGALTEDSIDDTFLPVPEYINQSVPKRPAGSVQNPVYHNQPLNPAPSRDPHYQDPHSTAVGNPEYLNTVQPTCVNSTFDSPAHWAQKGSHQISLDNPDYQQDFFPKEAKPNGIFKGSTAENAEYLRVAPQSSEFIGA
Outline: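 Potency came from triplicate 16-point half-log titrations starting at 200 uM, with IC50 fitted from % inhibition against log concentration, or % inhibition at 2 μM otherwise. Reaction: Sf9-made GST–EGFR cytoplasmic region (aa 667 onward), biotin-polyGluTyr, 5 μM ATP with 33P tracer, pH 8.0 Tris/Mg/vanadate/DTT, 30 °C for 1 h; captured on streptavidin Flashplates and counted.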

c-Src kinase (human) = target: T4, c-Src kinase (human) (Homo sapiens, UniProt P12931); assay: c-Src Kinase Assay; settings: test concentration of 2 μM; multiple values are separate assay results
T4 construct: purchased Upstate Biotechnology, Lake Placid, N.Y
T4 sequence (P12931 whole entry): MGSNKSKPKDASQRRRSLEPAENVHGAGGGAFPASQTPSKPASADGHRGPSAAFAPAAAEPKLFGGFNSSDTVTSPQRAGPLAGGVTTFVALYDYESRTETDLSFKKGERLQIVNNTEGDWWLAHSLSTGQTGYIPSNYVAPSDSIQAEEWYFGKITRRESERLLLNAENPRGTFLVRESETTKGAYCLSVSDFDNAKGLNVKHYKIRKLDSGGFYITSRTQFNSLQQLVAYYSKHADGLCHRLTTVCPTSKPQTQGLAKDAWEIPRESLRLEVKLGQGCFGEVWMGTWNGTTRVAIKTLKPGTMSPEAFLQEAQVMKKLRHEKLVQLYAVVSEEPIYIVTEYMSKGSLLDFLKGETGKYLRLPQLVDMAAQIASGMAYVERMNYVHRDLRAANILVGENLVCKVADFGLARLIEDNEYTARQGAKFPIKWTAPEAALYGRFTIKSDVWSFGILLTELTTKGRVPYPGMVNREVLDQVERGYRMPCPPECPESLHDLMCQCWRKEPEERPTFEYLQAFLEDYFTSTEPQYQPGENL
Outline: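 Inhibition was read as 33P incorporation, counted on P30 filtermats, after a 40 min, 30° C reaction. Human c-Src acted on 100 μM Cdc2 peptide with 5 μM ATP (final), pH 7.0 MOPS/MgCl2. Values are percent inhibition at 2 μM compound, or IC50 where determined.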

T1 sequence (P04626 679-1255): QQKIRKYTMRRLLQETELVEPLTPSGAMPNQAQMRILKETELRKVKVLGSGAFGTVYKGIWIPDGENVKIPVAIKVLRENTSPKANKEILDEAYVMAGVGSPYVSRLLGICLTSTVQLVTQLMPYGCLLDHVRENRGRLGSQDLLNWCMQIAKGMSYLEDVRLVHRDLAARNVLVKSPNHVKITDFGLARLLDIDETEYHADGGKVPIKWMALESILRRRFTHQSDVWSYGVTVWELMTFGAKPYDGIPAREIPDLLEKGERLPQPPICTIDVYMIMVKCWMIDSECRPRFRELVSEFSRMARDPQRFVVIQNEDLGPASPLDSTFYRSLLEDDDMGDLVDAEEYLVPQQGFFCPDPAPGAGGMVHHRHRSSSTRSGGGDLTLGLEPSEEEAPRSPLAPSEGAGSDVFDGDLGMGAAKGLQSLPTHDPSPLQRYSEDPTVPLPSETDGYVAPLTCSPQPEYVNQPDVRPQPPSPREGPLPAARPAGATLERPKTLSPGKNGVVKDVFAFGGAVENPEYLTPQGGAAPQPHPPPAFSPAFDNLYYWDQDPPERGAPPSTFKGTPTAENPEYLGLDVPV

Structure (SMILES) | inhibition at 1 µM (HER-2) [%] | inhibition at 2 µM (Lyn kinase (human)) [%] | inhibition at 2 µM (EGFR) [%] | inhibition at 2 µM (c-Src kinase (human)) [%] | IC50 (HER-2) [nM] | IC50 (EGFR) [nM]
CN1CCN(Cc2ccc(NC(=O)c3sc4ncnc5c4c3NC(=O)N5c3cc(OCc4cccc(F)c4)c(Cl)cc3Cl)cc2)CC1 [Cpd 61, 5-[2,4-dichloro-5-(3-fluoro-benzyloxy)-phenyl]-4-oxo-4,5-dihydro-3H-1-thia-3,5,6,8-tetraaza-acenaphthylene-2-carboxylic acid [4-(4-methyl-piperazin-1-ylmethyl)-phenyl]-amide] | -11 | 30 | 9 | -2 |  | 
O=C(NCCN1CCOCC1)c1sc2ncnc3c2c1NC(=O)N3c1ccc(Oc2ccccc2)cc1 [Cpd 105, 4-oxo-5-(4-phenoxy-phenyl)-4,5-dihydro-3H-1-thia-3,5,6,8-tetraaza-acenaphthylene-2-carboxylic acid (2-morpholin-4-yl-ethyl)-amide] |  | -3 |  | 12 | 3150 | 110
O=C(O)c1sc2ncnc3c2c1NC(=O)N3c1ccc(Oc2ccccc2)c(F)c1 [Cpd 112, 5-(3-fluoro-4-phenoxy-phenyl)-4-oxo-4,5-dihydro-3H-1-thia-3,5,6,8-tetraaza-acenaphthylene-2-carboxylic acid] |  | 30 |  | -16 | 5060 | 1030
COc1ccc(N2C(=O)Nc3c(C(=O)Nc4ccc(CCN5CCCCC5)cc4)sc4ncnc2c34)cc1Cl [Cpd 120, 5-(3-chloro-4-methoxy-phenyl)-4-oxo-4,5-dihydro-3H-1-thia-3,5,6,8-tetraaza-acenaphthylene-2-carboxylic acid [4-(2-piperidin-1-yl-ethyl)-phenyl]-amide] |  | 0 |  | -5 | 11700 | 1080
COc1ccc(N2C(=O)Nc3c(C(=O)Nc4ccc(CN5CCCCC5)cc4)sc4ncnc2c34)cc1Cl [Cpd 121, 5-(3-chloro-4-methoxy-phenyl)-4-oxo-4,5-dihydro-3H-1-thia-3,5,6,8-tetraaza-acenaphthylene-2-carboxylic acid (4-piperidin-1-ylmethyl-phenyl)-amide] |  | -13 |  | -1 | 3520 | 344
O=C(Nc1ccc(CN2CCCCC2)cc1)c1sc2ncnc3c2c1NC(=O)N3c1ccc(N2CCOCC2)cc1 [Cpd 124, 5-(4-morpholin-4-yl-phenyl)-4-oxo-4,5-dihydro-3H-1-thia-3,5,6,8-tetraaza-acenaphthylene-2-carboxylic acid (4-piperidin-1-ylmethyl-phenyl)-amide] |  | 18 | 9 | 30 | > 100000 | 
O=C(Nc1ccc(N2CCOCC2)cc1)c1sc2ncnc3c2c1NC(=O)N3c1ccc(N2CCOCC2)cc1 [Cpd 125, 5-(4-morpholin-4-yl-phenyl)-4-oxo-4,5-dihydro-3H-1-thia-3,5,6,8-tetraaza-acenaphthylene-2-carboxylic acid (4-morpholin-4-yl-phenyl)-amide] |  | 21 | 20 | 5 | > 100000 | 
CC(C)(C)OC(=O)N1CCC(NC(=O)c2sc3ncnc4c3c2NC(=O)N4c2ccc(N3CCOCC3)cc2)CC1 [Cpd 126, 4-{[5-(4-morpholin-4-yl-phenyl)-4-oxo-4,5-dihydro-3H-1-thia-3,5,6,8-tetraaza-acenaphthylene-2-carbonyl]-amino}-piperidine-1-carboxylic acid tert-butyl ester] |  | 19 | 3 | -4 | > 100000 | 
O=C(NCc1ccco1)c1sc2ncnc3c2c1NC(=O)N3c1ccc(N2CCOCC2)cc1 [Cpd 127, 5-(4-morpholin-4-yl-phenyl)-4-oxo-4,5-dihydro-3H-1-thia-3,5,6,8-tetraaza-acenaphthylene-2-carboxylic acid (furan-2-ylmethyl)-amide] |  | 25 | 0.5 | -2 | > 100000 | 
O=C(Nc1ccccc1)c1sc2ncnc3c2c1NC(=O)N3c1cccc(Br)c1 [Cpd 130, 5-(3-bromo-phenyl)-4-oxo-4,5-dihydro-3H-1-thia-3,5,6,8-tetraaza-acenaphthylene-2-carboxylic acid phenylamide] |  | 32 |  | -3 | > 100000 | 191

Now from value to molecule:

inhibition at 1 µM (HER-2) [%] | inhibition at 2 µM (Lyn kinase (human)) [%] | inhibition at 2 µM (EGFR) [%] | inhibition at 2 µM (c-Src kinase (human)) [%] | IC50 (HER-2) [nM] | IC50 (EGFR) [nM] | Structure (SMILES)
58 | 17.8 |  | -9 | 643 | 120 | COc1ccc(N2C(=O)Nc3c(C(=O)Nc4ccc(CN5CCOCC5)cc4)sc4ncnc2c34)c(F)c1 [Cpd 65, 5-(2-fluoro-4-methoxy-phenyl)-4-oxo-4,5-dihydro-3H-1-thia-3,5,6,8-tetraaza-acenaphthylene-2-carboxylic acid (4-morpholin-4-ylmethyl-phenyl)-amide]
51 | 22.5 |  | -17 | 965 | 103 | COc1ccc(N2C(=O)Nc3c(C(=O)Nc4ccc(OCCN5CCOCC5)c(OC)c4)sc4ncnc2c34)c(F)c1 [Cpd 67, 5-(2-fluoro-4-methoxy-phenyl)-4-oxo-4,5-dihydro-3H-1-thia-3,5,6,8-tetraaza-acenaphthylene-2-carboxylic acid [3-methoxy-4-(2-morpholin-4-yl-ethoxy)-phenyl]-amide]
 | 27 |  | 30 | 771 | 42 | O=C(NCCCO)c1sc2ncnc3c2c1NC(=O)N3c1ccc(Oc2ccccc2)cc1 [Cpd 106, 4-oxo-5-(4-phenoxy-phenyl)-4,5-dihydro-3H-1-thia-3,5,6,8-tetraaza-acenaphthylene-2-carboxylic acid (3-hydroxy-propyl)-amide]
 | 51.2 |  | -1 | 182 | 42 | CN1CCN(Cc2ccc(NC(=O)c3sc4ncnc5c4c3NC(=O)N5c3ccc(Oc4ccccc4)c(F)c3)cc2)CC1 [Cpd 115, 5-(3-fluoro-4-phenoxy-phenyl)-4-oxo-4,5-dihydro-3H-1-thia-3,5,6,8-tetraaza-acenaphthylene-2-carboxylic acid [4-(4-methyl-piperazin-1-ylmethyl)-phenyl]-amide]
 | -47 |  | -17 | 1090 | 1800 | Cc1ccc(Oc2ccc(N3C(=O)Nc4c(C(=O)Nc5ccc(CN6CCOCC6)cc5)sc5ncnc3c45)cc2C)cn1 [Cpd 119, 5-[3-methyl-4-(6-methyl-pyridin-3-yloxy)-phenyl]-4-oxo-4,5-dihydro-3H-1-thia-3,5,6,8-tetraaza-acenaphthylene-2-carboxylic acid (4-morpholin-4-ylmethyl-phenyl)-amide]
 | 3 |  | -9 | 1440 | 222 | COc1ccc(N2C(=O)Nc3c(C(=O)Nc4ccc(CN5CCOCC5)cc4)sc4ncnc2c34)cc1Cl [Cpd 122, 5-(3-chloro-4-methoxy-phenyl)-4-oxo-4,5-dihydro-3H-1-thia-3,5,6,8-tetraaza-acenaphthylene-2-carboxylic acid (4-morpholin-1-ylmethyl-phenyl)-amide]
63 | 10 |  | -3 | 515 | 154 | Cc1ccc(Oc2ccc(N3C(=O)Nc4c(C(=O)Nc5ccc(CN6CCOCC6)cc5)sc5ncnc3c45)cc2Cl)cn1 [Cpd 129, 5-[3-chloro-4-(6-methyl-pyridin-3-yloxy)-phenyl]-4-oxo-4,5-dihydro-3H-1-thia-3,5,6,8-tetraaza-acenaphthylene-2-carboxylic acid (4-morpholin-4-ylmethyl-phenyl)-amide]
